Data reported in the NIST ThermoML archive (doi:10.1016/j.fluid.2016.08.015).
Numbers after ± are expanded uncertainties.

What was measured:
[1] = refractive index (Na D-line) (dimensionless); conditions: 293.15 K; 101.33 kPa; Liquid; Standard Abbe refractometry
[2] = Liquid; for mass density: 293.15 K, 101.33 kPa, Vibrating tube method; for vapor or sublimation pressure: 298 K, Gas chromatography

| Compound | refractive index [1] | mass density [2] | vapor or sublimation pressure [2] |
| --- | --- | --- | --- |
| FC(F)(F)C(F)(F)C(F)(F)C(F)(F)C(F)(F)C(F)(F)C(F)(F)F [hexadecafluoroheptane] | 1.261 ± 0.001 | 1717 ± 1 kg/m3 | 10.12 ± 0.79 kPa |
| FC(F)(F)C(F)(F)C(F)(F)C(F)(F)C(F)(F)C(F)(F)C(F)(F)C(F)(F)C(F)(F)F [eicosafluorononane] | 1.275 ± 0.001 | 1798 ± 1 kg/m3 | 2.57 ± 0.27 kPa |
